Test results as given in US4112228A, “7-(D-α-Hydroxy-2-arylacetamido)-3-(2-carboxyalkyl-2,3-dihydro-s-tri azolo-[4,3-b]pyridazin-3-on-6-ylthiomethyl)-3-cephem-4-carboxylic acids and derivatives” (priority 1977, dated 1978).
Converted amounts (≈) assume the structure as drawn.

What was measured:
Serr. marcescens = test: MIC by Steers' agar dilution method; conditions: Serratia marcescens, Sm-12 A20461; MHA; Table 3
Sal. typhosa = test: MIC by Steers' agar dilution method; assay type: cell-based; conditions: MHA
S. aureus = test: MIC by Steers' agar dilution method; assay type: cell-based; conditions: Staphylococcus aureus
E. coli Juhl = test: Standard experimental infection in mice; assay type: in vivo; conditions: Table 6
Shig. sonnei = test: MIC by Steers' agar dilution method; assay type: cell-based; conditions: Shigella sonnei, MHA
Klebsiella sp. = test: MIC by Steers' agar dilution method
Citrobacter sp. = test: MIC by Steers' agar dilution method
bacteria of Table 4 = test: Media effect on MIC (Nutrient, Mueller-Hinton, Heart-Infusion agar); assay type: cell-based; conditions: NA, MHA, HIA
P. inconstans = test: MIC by Steers' agar dilution method; conditions: Providencia alcalifaciens

Compound `O=C(O)Cn1nc2ccc(SCC3=C(C(=O)O)N4C(=O)C(NC(=O)[C@H](O)c5ccccc5)[C@H]4SC3)nn2c1=O` (stereo partly drawn) [BB-S488, 7-(D-Mandelamido)-3-(2-carboxymethyl-2,3-dihydro-s-triazolo[4,3-b]pyridazin-3-on-6-ylthiomethyl)-3-cephem-4-carboxylic Acid] has an MIC (Serr. marcescens) of 6.3 µg/mL (≈ 11 µM), an MIC (Sal. typhosa; A9498, Table 1) of 0.05 µg/mL (≈ 0.0873 µM) and an MIC (Sal. typhosa; Example 10) of 0.05 µg/mL (≈ 0.0873 µM). It also gave an MIC (S. aureus; A9497, MHA, Table 1) of 0.1 µg/mL (≈ 0.175 µM), an MIC (S. aureus; BX-1633, MHA, Example 10) of 3.1 µg/mL (≈ 5.41 µM) and an MIC (S. aureus; BX-1633 A9606, MHA, Table 1) of 0.4 µg/mL (≈ 0.699 µM). For the same compound, the MIC (S. aureus; Sa-2 Smith A9537, HIA, Table 4) was 0.8 µg/mL (≈ 1.4 µM), the MIC (S. aureus; Sa-2 Smith A9537, MHA, Table 2) was 0.4 µg/mL (≈ 0.699 µM) and the MIC (S. aureus; Sa-2 Smith A9537, MHA, Table 4) was 0.8 µg/mL (≈ 1.4 µM). It also gave an MIC (S. aureus; Sa-2 Smith A9537, NA, Table 4) of 0.8 µg/mL (≈ 1.4 µM), an MIC (S. aureus; Sa-3 No. 193, MHA, Table 2) of 0.8 µg/mL (≈ 1.4 µM) and an MIC (S. aureus; Sa-8, MHA, Table 2) of 0.4 µg/mL (≈ 0.699 µM). For the same compound, the MIC (S. aureus; Sa-9 No. 193, MHA, Table 2) was 0.8 µg/mL (≈ 1.4 µM), the MIC (S. aureus; Sa-10 A20239, MHA, Table 2) was 1.6 µg/mL (≈ 2.79 µM) and the MIC (S. aureus; Sa-11 BX-1633 A9606 (β-lactamase), HIA, Table 4) was 1.6 µg/mL (≈ 2.79 µM). The MIC (S. aureus; Sa-11 BX-1633 A9606 (β-lactamase), MHA, Table 4) was 0.8 µg/mL (≈ 1.4 µM), the MIC (S. aureus; Sa-11 BX-1633 A9606 (β-lactamase), NA, Table 4) was 3.1 µg/mL (≈ 5.41 µM) and the MIC (S. aureus; Sa-11 BX-1633 A9606, MHA, Table 2) was 0.4 µg/mL (≈ 0.699 µM). It also gave an MIC (S. aureus; Sa-12 A9497, MHA, Table 2) of 0.2 µg/mL (≈ 0.349 µM), an MIC (S. aureus; Sa-29 No. 193, MHA, Table 2) of 1.6 µg/mL (≈ 2.79 µM) and an MIC (S. aureus; Sa-33 Terajima, MHA, Table 2) of 0.0125 µg/mL (≈ 0.0218 µM). It also gave an MIC (S. aureus; Sa-34 A15092, MHA, Table 2) of 0.8 µg/mL (≈ 1.4 µM), an MIC (S. aureus; Sa-35 A15094, MHA, Table 2) of 0.8 µg/mL (≈ 1.4 µM) and an MIC (S. aureus; Sa-36 Russell, MHA, Table 2) of 0.8 µg/mL (≈ 1.4 µM). It also gave an MIC (S. aureus; Sa-37 A9524, MHA, Table 2) of 1.6 µg/mL (≈ 2.79 µM), an MIC (S. aureus; Sa-38 A9534, MHA, Table 2) of 0.4 µg/mL (≈ 0.699 µM) and an MIC (S. aureus; Sa-39 A9578, MHA, Table 2) of 0.8 µg/mL (≈ 1.4 µM). It also gave an MIC (S. aureus; Sa-40 A9601, MHA, Table 2) of 0.8 µg/mL (≈ 1.4 µM), an MIC (S. aureus; Sa-41 A9602, MHA, Table 2) of 0.8 µg/mL (≈ 1.4 µM) and an MIC (S. aureus; Sa-44 A15097, HIA, Table 4) greater than 100 µg/mL. For the same compound, the MIC (S. aureus; Sa-44 A15097, MHA, Table 2) was 25 µg/mL (≈ 43.7 µM), the MIC (S. aureus; Sa-44 A15097, MHA, Table 4) was 100 µg/mL (≈ 175 µM) and the MIC (S. aureus; Sa-44 A15097, NA, Table 4) was greater than 100 µg/mL. For the same compound, the MIC (S. aureus; Sa-56 A9630, MHA, Table 2) was 3.1 µg/mL (≈ 5.41 µM), the MIC (S. aureus; Sa-57 A9748, MHA, Table 2) was 25 µg/mL (≈ 43.7 µM) and the MIC (S. aureus; Sa-58 A15033, MHA, Table 2) was 12.5 µg/mL (≈ 21.8 µM). The MIC (S. aureus; Sa-59 A15096, MHA, Table 2) was 100 µg/mL (≈ 175 µM), the MIC (S. aureus; Sa-60 A20604, MHA, Table 2) was 50 µg/mL (≈ 87.3 µM) and the MIC (S. aureus; Sa-61 A20605, MHA, Table 2) was 100 µg/mL (≈ 175 µM). For the same compound, the MIC (S. aureus; Sa-62 A20606, MHA, Table 2) was 3.1 µg/mL (≈ 5.41 µM), the MIC (S. aureus; Sa-63 A20607, MHA, Table 2) was greater than 100 µg/mL and the MIC (S. aureus; Sa-64 A20608, MHA, Table 2) was 100 µg/mL (≈ 175 µM). It also gave an MIC (S. aureus; Sa-65 A20609, MHA, Table 2) of 100 µg/mL (≈ 175 µM), an MIC (S. aureus; Sa-66 A20610, MHA, Table 2) of 100 µg/mL (≈ 175 µM) and an MIC (S. aureus; Sa-67 A20611, MHA, Table 2) of 100 µg/mL (≈ 175 µM). The MIC (S. aureus; Sa-68 A20612, MHA, Table 2) was 1.6 µg/mL (≈ 2.79 µM), the MIC (S. aureus; Sa-69 A20613, MHA, Table 2) was 100 µg/mL (≈ 175 µM) and the MIC (S. aureus; Smith A9537, MHA, Table 1) was 0.2 µg/mL (≈ 0.349 µM). The MIC (S. aureus; Smith, MHA, Example 10) was 0.8 µg/mL (≈ 1.4 µM), the MIC (S. aureus; strain not named, MHA, Example 10) was 0.4 µg/mL (≈ 0.699 µM) and the “No. of survivors/No. tested” value (E. coli Juhl; 0.1 mg./kg.) was 2/5. For the same compound, the “No. of survivors/No. tested” value (E. coli Juhl; 0.4 mg./kg.) was 5/5, the “No. of survivors/No. tested” value (E. coli Juhl; 1.6 mg./kg.) was 5/5 and the “No. of survivors/No. tested” value (E. coli Juhl; 6.3 mg./kg.) was 5/5. The “No. of survivors/No. tested” value (E. coli Juhl; 25 mg./kg.) was 5/5, the ED50 (E. coli Juhl; Escherichia coli, read-out: PD50) was 0.12 mg/kg and the MIC (Shig. sonnei; A9516, Table 1) was 0.025 µg/mL (≈ 0.0437 µM). The MIC (Shig. sonnei; Example 10) was 0.05 µg/mL (≈ 0.0873 µM), the MIC (Shig. sonnei; Ss-1 Yale, Table 3) was 0.1 µg/mL (≈ 0.175 µM) and the MIC (Klebsiella sp.; Kx-2 A9662, MHA, Table 3) was 0.4 µg/mL (≈ 0.699 µM). For the same compound, the MIC (Klebsiella sp.; Kx-3 A20346 (β-lactamase), HIA, Table 4) was 0.2 µg/mL (≈ 0.349 µM), the MIC (Klebsiella sp.; Kx-3 A20346 (β-lactamase), MHA, Table 4) was 0.2 µg/mL (≈ 0.349 µM) and the MIC (Klebsiella sp.; Kx-3 A20346 (β-lactamase), NA, Table 4) was 0.2 µg/mL (≈ 0.349 µM). The MIC (Klebsiella sp.; Kx-3 A20346, MHA, Table 3) was 0.2 µg/mL (≈ 0.349 µM), the MIC (Citrobacter sp.; Citrobacter) was 1.6 µg/mL (≈ 2.79 µM) and the MIC (Citrobacter sp.; Cx-2 A20694, MHA, Table 3) was 1.6 µg/mL (≈ 2.79 µM). For the same compound, the MIC (Citrobacter sp.; Cx-3 A20695, MHA, Table 3) was 1.6 µg/mL (≈ 2.79 µM), the “Media effect on MIC” value (bacteria of Table 4) was “little media effect” and the MIC (P. inconstans) was 0.1 µg/mL (≈ 0.175 µM).
